Reference: ChEMBL document CHEMBL1201862, “PubChem BioAssay data set” (2004)
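These data come from cells grown in 96-well plates and exposed to compound for 48 hours at five concentrations. GI50 is the concentration that inhibits growth by half.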 Activity calls are given as the source filed them. No stated cut-off is given here; in the data, active = GI50 up to about 1.1 µM and inactive = higher.

Assays:
Assay in all cases: DTP human tumour cell line panel, 48 h
[1] = system: U-251
[2] = system: SN12C
[3] = system: MCF7
[4] = system: ACHN
[5] = system: RXF 393
[6] = system: OVCAR-8
[7] = system: SF-539
[8] = system: SK-MEL-5
[9] = system: UO-31
[10] = system: MOLT-4
[11] = system: K562
[12] = system: A498
[13] = system: RPMI-8226
[14] = system: TK-10
[15] = system: MDA-N
[16] = system: DU-145
[17] = system: KM12
[18] = system: IGROV-1
[19] = system: NCI-H23
[20] = system: SK-MEL-2
[21] = system: EKVX
[22] = system: SW-620
[23] = system: NCI-H460
[24] = system: UACC-257
[25] = system: OVCAR-4
[26] = system: T47D
[27] = system: HCT-116
[28] = system: CAKI-1
[29] = system: HL-60
[30] = system: HCT-15
[31] = system: Hs-578T
[32] = system: M14
[33] = system: NCI-H522
[34] = system: A549
[35] = system: HOP-62
[36] = system: HT-29
[37] = system: SNB-19
[38] = system: PC-3
[39] = system: MDA-MB-435
[40] = system: OVCAR-5
[41] = system: SR
[42] = system: UACC-62
[43] = system: OVCAR-3
[44] = system: COLO 205
[45] = system: NCI/ADR-RES
[46] = system: SK-OV-3
[47] = system: NCI-H226
[48] = system: SF-268
[49] = system: HCC 2998
[50] = system: BT-549
[51] = system: LOX IMVI
[52] = system: Malme-3M
[53] = system: CCRF-CEM
[54] = system: HOP-92
[55] = system: SF-295
[56] = system: 786-0
[57] = system: SNB-75
[58] = system: MDA-MB-231
[59] = system: SK-MEL-28

Q: Which GI50 [1] does the source give for `O=c1cc(/N=N\c2ccc(Cl)c(Cl)c2)[nH]c(=O)[nH]1` here?
A: 1.87 µM (inactive)

Q: And the GI50 [2]?
A: 2.11 µM (inactive)

Q: And the GI50 [3]?
A: 1.64 µM (inactive)

Q: And the GI50 [4]?
A: 1.62 µM (inactive)

Q: And the GI50 [5]?
A: 1.77 µM (inactive)

Q: And the GI50 [6]?
A: 2.21 µM (inactive)

Q: What about the GI50 [7] of the same molecule?
A: 2.61 µM (inactive)

Q: And the GI50 [8]?
A: 4.89 µM (inactive)

Q: And the GI50 [9]?
A: 2.07 µM (inactive)

Q: And the GI50 [10]?
A: 1.97 µM (inactive)

Q: What about the GI50 [11] of the same molecule?
A: 0.977 µM (active)

Q: What about the GI50 [12] of the same molecule?
A: 15.3 µM (inactive)

Q: And the GI50 [13]?
A: 2.14 µM (inactive)

Q: And the GI50 [14]?
A: 1.78 µM (inactive)

Q: What about the GI50 [15] of the same molecule?
A: 1.8 µM (inactive)

Q: What about the GI50 [16] of the same molecule?
A: 2.94 µM (inactive)

Q: And the GI50 [17]?
A: 2.26 µM (inactive)

Q: What about the GI50 [18] of the same molecule?
A: 1.57 µM (inactive)

Q: And the GI50 [19]?
A: 3.89 µM (inactive)

Q: What about the GI50 [20] of the same molecule?
A: 5.2 µM (inactive)

Q: What about the GI50 [21] of the same molecule?
A: 1.6 µM (inactive)

Q: And the GI50 [22]?
A: 1.86 µM (inactive)

Q: And the GI50 [23]?
A: 2.47 µM (inactive)

Q: And the GI50 [24]?
A: 2.38 µM (inactive)

Q: What about the GI50 [25] of the same molecule?
A: 2.91 µM (inactive)

Q: And the GI50 [26]?
A: 2.56 µM (inactive)

Q: And the GI50 [27]?
A: 1.75 µM (inactive)

Q: And the GI50 [28]?
A: 2.07 µM (inactive)

Q: What about the GI50 [29] of the same molecule?
A: 0.292 µM (active)

Q: What about the GI50 [30] of the same molecule?
A: 1.72 µM

Q: And the GI50 [31]?
A: 2.57 µM (inactive)

Q: And the GI50 [32]?
A: 1.93 µM (inactive)

Q: What about the GI50 [33] of the same molecule?
A: 1.07 µM (active)

Q: What about the GI50 [34] of the same molecule?
A: 15.3 µM (inactive)

Q: And the GI50 [35]?
A: 6.43 µM (inactive)

Q: What about the GI50 [36] of the same molecule?
A: 1.73 µM (inactive)

Q: What about the GI50 [37] of the same molecule?
A: 12.1 µM (inactive)

Q: What about the GI50 [38] of the same molecule?
A: 5.74 µM (inactive)

Q: And the GI50 [39]?
A: 6.55 µM (inactive)

Q: What about the GI50 [40] of the same molecule?
A: 4.85 µM (inactive)

Q: What about the GI50 [41] of the same molecule?
A: 0.337 µM (active)

Q: And the GI50 [42]?
A: 2.01 µM (inactive)

Q: And the GI50 [43]?
A: 2.36 µM (inactive)

Q: And the GI50 [44]?
A: 1.81 µM (inactive)

Q: And the GI50 [45]?
A: 1.85 µM (inactive)

Q: And the GI50 [46]?
A: 15.8 µM (inactive)

Q: What about the GI50 [47] of the same molecule?
A: 15.1 µM (inactive)

Q: And the GI50 [48]?
A: 2.88 µM (inactive)

Q: And the GI50 [49]?
A: 2.45 µM (inactive)

Q: What about the GI50 [50] of the same molecule?
A: 2.21 µM (inactive)

Q: And the GI50 [51]?
A: 1.76 µM (inactive)

Q: And the GI50 [52]?
A: 2.23 µM (inactive)

Q: And the GI50 [53]?
A: 0.033 µM (active)

Q: And the GI50 [54]?
A: 1.59 µM (inactive)

Q: What about the GI50 [55] of the same molecule?
A: 15.3 µM (inactive)

Q: And the GI50 [56]?
A: 1.51 µM (inactive)

Q: And the GI50 [57]?
A: 9.62 µM (inactive)

Q: What about the GI50 [58] of the same molecule?
A: 1.85 µM (inactive)

Q: And the GI50 [59]?
A: 1.73 µM (inactive)

Q: How did the GI50 [1] turn out when `CCC(C)N1CN(c2ccccc2)C2(CCN(CCCC3(c4ccc(F)cc4)OCCO3)CC2)C1=O` (stereo not drawn) was run?
A: 5.86 µM (inactive)

Q: What about the GI50 [2] of the same molecule?
A: 7.24 µM (inactive)

Q: What about the GI50 [3] of the same molecule?
A: 3.3 µM (inactive)

Q: What about the GI50 [4] of the same molecule?
A: 6.61 µM (inactive)

Q: What about the GI50 [5] of the same molecule?
A: 13 µM (inactive)

Q: What about the GI50 [6] of the same molecule?
A: 7.64 µM (inactive)

Q: And the GI50 [7]?
A: 5.5 µM (inactive)

Q: And the GI50 [8]?
A: 3.88 µM (inactive)

Q: What about the GI50 [9] of the same molecule?
A: 5.09 µM (inactive)

Q: What about the GI50 [10] of the same molecule?
A: 2.61 µM (inactive)

Q: And the GI50 [11]?
A: 8.24 µM (inactive)

Q: What about the GI50 [12] of the same molecule?
A: 22.2 µM (inactive)

Q: What about the GI50 [13] of the same molecule?
A: 1.89 µM (inactive)

Q: And the GI50 [14]?
A: 7.5 µM (inactive)

Q: And the GI50 [15]?
A: 7.14 µM (inactive)

Q: What about the GI50 [16] of the same molecule?
A: 17.6 µM (inactive)

Q: What about the GI50 [17] of the same molecule?
A: 20.6 µM (inactive)

Q: What about the GI50 [18] of the same molecule?
A: 16.5 µM (inactive)

Q: What about the GI50 [19] of the same molecule?
A: 3.34 µM (inactive)

Q: What about the GI50 [20] of the same molecule?
A: 11.9 µM (inactive)

Q: What about the GI50 [21] of the same molecule?
A: 6.14 µM (inactive)

Q: What about the GI50 [22] of the same molecule?
A: 11.6 µM (inactive)

Q: And the GI50 [23]?
A: 14.8 µM (inactive)

Q: And the GI50 [24]?
A: 1.98 µM (inactive)

Q: What about the GI50 [25] of the same molecule?
A: 22.6 µM (inactive)

Q: What about the GI50 [26] of the same molecule?
A: 8.28 µM (inactive)

Q: What about the GI50 [27] of the same molecule?
A: 11.9 µM (inactive)

Q: And the GI50 [28]?
A: > 52 µM (inactive)

Q: And the GI50 [29]?
A: 6.47 µM (inactive)

Q: And the GI50 [30]?
A: 4.75 µM

Q: What about the GI50 [31] of the same molecule?
A: 6.15 µM (inactive)

Q: And the GI50 [32]?
A: 5.97 µM (inactive)

Q: What about the GI50 [33] of the same molecule?
A: 5.11 µM (inactive)

Q: And the GI50 [34]?
A: 7.73 µM (inactive)

Q: And the GI50 [35]?
A: 13.2 µM (inactive)

Q: What about the GI50 [36] of the same molecule?
A: 2.87 µM (inactive)

Q: And the GI50 [37]?
A: 12.4 µM (inactive)

Q: What about the GI50 [38] of the same molecule?
A: 6.05 µM (inactive)

Q: And the GI50 [39]?
A: 18.8 µM (inactive)

Q: And the GI50 [40]?
A: 8.61 µM (inactive)

Q: What about the GI50 [41] of the same molecule?
A: 6.34 µM (inactive)

Q: And the GI50 [42]?
A: 23.3 µM (inactive)

Q: What about the GI50 [43] of the same molecule?
A: 14.7 µM (inactive)

Q: And the GI50 [44]?
A: 3.75 µM (inactive)

Q: And the GI50 [45]?
A: 13.3 µM (inactive)

Q: And the GI50 [46]?
A: 21 µM (inactive)

Q: What about the GI50 [47] of the same molecule?
A: 16.7 µM (inactive)

Q: And the GI50 [48]?
A: 17.7 µM (inactive)

Q: And the GI50 [49]?
A: 12.9 µM (inactive)

Q: And the GI50 [50]?
A: 2 µM (inactive)

Q: And the GI50 [51]?
A: 7.73 µM (inactive)

Q: What about the GI50 [52] of the same molecule?
A: 5.19 µM (inactive)

Q: And the GI50 [53]?
A: 3.6 µM (inactive)

Q: And the GI50 [54]?
A: < 0.01 µM (active)

Q: What about the GI50 [55] of the same molecule?
A: 5.57 µM (inactive)

Q: What about the GI50 [56] of the same molecule?
A: 5.53 µM (inactive)

Q: And the GI50 [57]?
A: 6.05 µM (inactive)

Q: What about the GI50 [58] of the same molecule?
A: 13.4 µM (inactive)

Q: And the GI50 [59]?
A: 17.6 µM (inactive)
